Where two headings read alike, the source gives them in different places.
Legend:
Type in all cases: in vivo, mouse
[1] = PK-BBB brain-plasma permeability; details: 5 mg/kg IV
Protocol: For the brain-plasma permeability assessment, brain tissues from male ICR mice (n = 3 per time point) were collected following euthanasia by CO2 inhalation. Brains were excised, rinsed with saline, blotted dry, and transferred into pre-labeled Eppendorf tubes (one brain per tube). Samples were snap-frozen on dry ice and stored at -80 °C until analysis. Brain samples were processed using the same LC-MS/MS method. The brain-to-plasma concentration ratio was calculated as the concentration of drug in brain tissue divided by the corresponding plasma concentration.

A53T mice = test: Immunohistochemistry of SNpc, A53T mice; details: for mean GABA intensity in GFAP-positive areas: Fig. 4k; for TH-positive neuron counts per hemisphere: Fig. 4l
Protocol: Stereotaxic injections were performed to deliver the AAV-CMV-A53T virus or PBS (control) into the right SNpc (AP, −3.2 mm; ML, −1.3 mm; DV, −4.0 mm from the bregma) of the mice. The injections were administered at a rate of 0.2 μl/min, with a total volume of 1 μl. The procedure was conducted under general anesthesia induced by 1% isoflurane.
The mice were deeply anesthetized with 2% isoflurane and positioned on the operating table. After the abdomen was opened and the heart was exposed, the […] were perfused with saline, followed by 4% paraformaldehyde (PFA) in 0.1 M PBS. The mice were decapitated, and the brains were excised from the skull. Excised brains were postfixed in 4% PFA overnight at 4 °C and dehydrated in 30% sucrose for 48 h. Coronal hippocampal sections were cut at 30 µm thickness with a cryostat and stored in storage solution. For the ALS experiments, lumbar spinal cords (L2–L5) were also carefully dissected and immediately immersed in 4% PFA for postfixation. The sections were fully washed in 0.1 M PBS and incubated for 1 h in blocking solution (0.3% Triton X-100, 2% donkey and goat serum in 0.1 M PBS). Next, a mixture of primary antibodies in the blocking solution was used for immunostaining on a shaker overnight at 4 °C. The sections were washed in PBS three times. After washing, the sections were incubated with the corresponding fluorescent secondary antibodies for 1 h at RT. DAPI staining was performed by adding a DAPI solution (1:2000) during the second washing step. After the washing step was complete, the sections were mounted on cover slides with mounting medium. A series of fluorescence images were obtained with an LSM900 (Zeiss, Germany) confocal microscope or Lattice SIM Elyra 7 (Zeiss, Germany). The 15–22 μm Z stack images in 1–2 μm steps were processed for image analysis, which was performed via the ImageJ (NIH, US) and ZEN digital imaging for light microscopy blue system (Zeiss, Germany) programs. The primary antibodies used were as follows: chicken anti-GFAP (1:500, Millipore, ab5541), rabbit anti-amyloid beta (1:500, Abcam, ab2539), mouse anti-NeuN (1:200, Millipore, ab377), rabbit anti-Hbβ (1:200, Abcam, ab214049), mouse anti-Hbβ (1:200, Santacruz, sc-21757), mouse anti-MAOB (1:200, Santacruz, sc-515354), mouse anti-8-OhdG (1:500, Santacruz, sc-393871), rabbit anti-TH (1:500, Pelfreez, p40101), and mouse anti-TH (1:200, Sigma, T2928). The following secondary antibodies from Jackson were diluted (1:500) in blocking solution: donkey-anti-chicken 405, donkey-anti-chicken 647, donkey-anti-rabbit 488, donkey-anti-rabbit 594, donkey-anti-rabbit 647, donkey-anti-guinea pig 488, donkey-anti-guinea pig 647, donkey-anti-mouse 594, and donkey-anti-mouse 647. Serial confocal sections immunolabeled with GFAP were compiled into a maximal projection to assess the GFAP signal within the hippocampus (Z-stacked images, 15–22 μm Z stack images in 1–2 μm steps of brain sections). Sholl analysis, performed via the ImageJ plugin, automatically generated concentric circles with 10-μm spacing from the nucleus (soma) to the farthest astrocytic process. This analysis quantified the intersections of GFAP-labeled processes within each circle, calculating the ramification index and ending radius, enabling the evaluation of astrocytic hypertrophy and morphological changes, as previously described.[78] In the focal GiD mouse model, NeuN-positive CA1 pyramidal neurons were quantified within a 50 × 50 μm^2 region via ImageJ to determine the number of CA1 pyramidal neurons.
For the SNpc, astrocytes and dopaminergic neurons were analyzed separately. The SNpc region was manually reconstructed using anatomical landmarks and TH or GFAP signals. GFAP-positive astrocyte surfaces were reconstructed with surface details set to 0.6 μm, the diameter of the largest sphere at 2.0 μm, a manual threshold value minimum of 800, and diffusion transparency set to 60%. […]

SOD1^G93A mice = test: Immunohistochemistry of ventral spinal cord, SOD1^G93A mice; details: SOD1+KDS
Protocol: SOD1^G93A mice (B6SJL-Tg(SOD1*G93A)1Gur/J) were purchased from Jackson Laboratory (strain number 002726) and used in the ALS mouse model. The mice were divided into four groups: Control, SOD1, and KDS12025 (1 and 10 mg/kg/day). Starting at 10 weeks of age, KDS12025 was administered via ad libitum drinking water at doses of 1 mg/kg/day and 10 mg/kg/day. The control and SOD1 groups received standard drinking water. Motor function was evaluated weekly via the rotarod performance test, and the ratio of running time was normalized to that of littermate controls to assess motor coordination and endurance over time. Survival of the mice was monitored for up to 24 weeks, and median survival times were calculated for each group.
The mice were deeply anesthetized with 2% isoflurane and positioned on the operating table. […] A series of fluorescence images were obtained with an LSM900 (Zeiss, Germany) confocal microscope or Lattice SIM Elyra 7 (Zeiss, Germany). […] This analysis quantified the intersections of GFAP-labeled processes within each circle, calculating the ramification index and ending radius, enabling the evaluation of astrocytic hypertrophy and morphological changes, as previously described.[78] In the focal GiD mouse model, NeuN-positive CA1 pyramidal neurons were quantified within a 50 × 50 μm^2 region via ImageJ to determine the number of CA1 pyramidal neurons.

With `CNc1ccc(NCCc2ccccc2OC)cc1.Cl` [KDS12025, N^1-(2-methoxyphenethyl)-N^4-methylbenzene-1,4-diamine hydrochloride salt] the Brain concentration ([1]; 2 h) was “BLQ”, the Brain concentration ([1]; 4 h) was “BLQ” and the Brain concentration ([1]; 8 h) was “BLQ”. For the same compound, the Plasma concentration ([1]; 8 h) was “BLQ”, the concentration at 0.083 h ([1]; male, ICR, mouse, brain, 0.083 h, read-out: Brain concentration) was 1680 ± 34.2 ng/g and the Kp at 0.083 h ([1]; male, ICR, mouse, brain, 0.083 h, read-out: Brain to plasma ratio (B/P)) was 0.9 ± 0.17. It also gave a concentration at 0.25 h ([1]; male, ICR, mouse, brain, 0.25 h, read-out: Brain concentration) of 589 ± 44.1 ng/g, a Kp at 0.25 h ([1]; male, ICR, mouse, brain, 0.25 h, read-out: Brain to plasma ratio (B/P)) of 0.76 ± 0.04 and a concentration at 0.5 h ([1]; male, ICR, mouse, brain, 0.5 h, read-out: Brain concentration) of 234 ± 31.7 ng/g. For the same compound, the Kp at 0.5 h ([1]; male, ICR, mouse, brain, 0.5 h, read-out: Brain to plasma ratio (B/P)) was 0.84 ± 0.19, the concentration at 1 h ([1]; male, ICR, mouse, brain, 1 h, read-out: Brain concentration) was 65.6 ± 12.3 ng/g and the Kp at 1 h ([1]; male, ICR, mouse, brain, 1 h, read-out: Brain to plasma ratio (B/P)) was 0.79 ± 0.25. For the same compound, the half-life ([1]; male, ICR, mouse, brain, mice, read-out: brain t1/2 (PK-BBB) (converted)) was 14.4 min, the concentration at 0.083 h ([1]; male, ICR, mouse, plasma, 0.083 h, read-out: Plasma concentration) was 1910 ± 323 ng/mL and the concentration at 0.25 h ([1]; male, ICR, mouse, plasma, 0.25 h, read-out: Plasma concentration) was 782 ± 104 ng/mL. The concentration at 0.5 h ([1]; male, ICR, mouse, plasma, 0.5 h, read-out: Plasma concentration) was 284 ± 45.5 ng/mL, the concentration at 1 h ([1]; male, ICR, mouse, plasma, 1 h, read-out: Plasma concentration) was 84.7 ± 10.3 ng/mL and the concentration at 2 h ([1]; male, ICR, mouse, plasma, 2 h) was 15.5 ± 7.09 ng/mL. It also gave a concentration at 4 h ([1]; male, ICR, mouse, plasma, 4 h) of 2.99 ± 0.52 ng/mL, an AUC ([1]; male, ICR, mouse, plasma, mice, read-out: plasma AUCall (PK-BBB)) of 721 ng·h/mL and a clearance ([1]; male, ICR, mouse, plasma, mice, read-out: plasma Cl (PK-BBB) (converted)) of 115 mL/min/kg. The half-life ([1]; male, ICR, mouse, plasma, mice, read-out: plasma t1/2 (PK-BBB) (converted)) was 39 min, the “brain AUCall (PK-BBB)” value ([1]; mice) was 437.01 ng·h/mL and the “brain Cmax (PK-BBB)” value ([1]; mice) was 1680.64 ng/mL. The “mean intensity of Hbβ in GFAP-positive areas” value (A53T mice; A53T contra+KDS12025, Fig. 5p) was 46.92±4.141, the “mean intensity of Hbβ in TH-positive areas” value (A53T mice; A53T contra+KDS12025, Fig. 5q) was 61.58±2.401 and the “mean intensity of GFAP in GFAP-positive area” value (A53T mice; A53T contra+KDS12025, Fig. S12c) was 82.69±4.999. For the same compound, the “GFAP-positive area in the SNpc” value (A53T mice; A53T contra+KDS, Fig. 4j) was 25.28±2.892, the “mean GABA intensity in GFAP-positive areas” value (A53T mice; A53T contra+KDS) was 10.18±1.460 and the “TH-positive neuron counts per hemisphere” value (A53T mice; A53T contra+KDS) was 23.20±2.685. For the same compound, the “mean intensity of Hbβ in GFAP-positive areas” value (A53T mice; A53T ipsi+KDS12025, Fig. 5p) was 34.98±2.564, the “mean intensity of Hbβ in TH-positive areas” value (A53T mice; A53T ipsi+KDS12025, Fig. 5q) was 55.65±3.378 and the “mean intensity of GFAP in GFAP-positive area” value (A53T mice; A53T ipsi+KDS12025, Fig. S12c) was 106.7±3.202. The “GFAP-positive area in the SNpc” value (A53T mice; A53T ipsi+KDS, Fig. 4j) was 34.18±3.214, the “mean GABA intensity in GFAP-positive areas” value (A53T mice; A53T ipsi+KDS) was 5.531±0.9318 and the “TH-positive neuron counts per hemisphere” value (A53T mice; A53T ipsi+KDS) was 20.96±2.68. The “GFAP-positive area in the SNpc” value (A53T mice; A53T+shHbβ::CaMKII+KDS12025, Fig. 6r) was 37.16±3.6, the “number of TH-positive neurons per hemisphere” value (A53T mice; A53T+shHbβ::CaMKII+KDS12025, Fig. 6s) was 18.5±1.3 and the “GFAP-positive area in the SNpc” value (A53T mice; A53T+shHbβ::GFAP+KDS12025, Fig. 6r) was 42.7±5.05. For the same compound, the “number of TH-positive neurons per hemisphere” value (A53T mice; A53T+shHbβ::GFAP+KDS12025, Fig. 6s) was 16.75±2.75, the “Hbβ in GFAP-positive astrocytes, ventral spinal cord” value (SOD1^G93A mice; Fig. S15b) was “Control (2194±76.5, n=25), SOD1 (1209±54.8, n=31), SOD1+KDS (2557±108.6, n=37) One-way ANOVA with Tukey's multiple comparisons test, F(2,90) = 65.01, p < 0.001 Control vs. SOD1, p < 0.001; Control vs. SOD1+KDS, p = 0.02; SOD1 vs. SOD1+KDS, p < 0.001” and the “Hbβ in NeuN-positive neurons, ventral spinal cord” value (SOD1^G93A mice; Fig. S15d) was “Control (1961±96.1, n=22), SOD1 (1183±89.9, n=19), SOD1+KDS (2326±85.3, n=17) One-way ANOVA with Tukey's multiple comparisons test, F(2,55) = 38.14, p < 0.001 Control vs. SOD1, p < 0.001; Control vs. SOD1+KDS, p = 0.02; SOD1 vs. SOD1+KDS, p < 0.001”.

Source: article PMC12373846, “Hemoglobin as a pseudoperoxidase and drug target for oxidative stress-related diseases” (Signal Transduction and Targeted Therapy, 2025)
